The values that follow come from ChEMBL document CHEMBL3813620, “Discovery of selective inhibitors of tyrosyl-DNA phosphodiesterase 2 by targeting the enzyme DNA-binding cleft” (Bioorg Med Chem Lett, 2016).

For assay [1], the target named is T1, Tyrosyl-DNA phosphodiesterase 2 (Homo sapiens) (UniProt O95551).
T1 sequence (whole entry): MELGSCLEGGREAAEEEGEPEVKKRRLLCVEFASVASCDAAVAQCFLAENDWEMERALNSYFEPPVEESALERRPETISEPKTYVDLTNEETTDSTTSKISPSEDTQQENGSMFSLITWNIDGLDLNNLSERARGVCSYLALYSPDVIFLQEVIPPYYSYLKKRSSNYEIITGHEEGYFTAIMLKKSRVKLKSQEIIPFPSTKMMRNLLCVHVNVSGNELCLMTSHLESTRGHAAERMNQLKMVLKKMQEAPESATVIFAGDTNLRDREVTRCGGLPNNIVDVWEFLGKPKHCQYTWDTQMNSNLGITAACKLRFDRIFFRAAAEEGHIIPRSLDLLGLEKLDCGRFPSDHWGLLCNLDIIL
The experiment in a line: Inhibition of endogenous human TDP2 within whole cell extracts from human TDP2-complemented DT40 chicken cells using TY19 DNA as substrate after 15 mins by spectrophotometric analysis.

For assay [2], the target named is T2, Tyrosyl-DNA phosphodiesterase 2 (Danio rerio, UniProt Q5XJA0).
T2 sequence (Q5XJA0 whole entry): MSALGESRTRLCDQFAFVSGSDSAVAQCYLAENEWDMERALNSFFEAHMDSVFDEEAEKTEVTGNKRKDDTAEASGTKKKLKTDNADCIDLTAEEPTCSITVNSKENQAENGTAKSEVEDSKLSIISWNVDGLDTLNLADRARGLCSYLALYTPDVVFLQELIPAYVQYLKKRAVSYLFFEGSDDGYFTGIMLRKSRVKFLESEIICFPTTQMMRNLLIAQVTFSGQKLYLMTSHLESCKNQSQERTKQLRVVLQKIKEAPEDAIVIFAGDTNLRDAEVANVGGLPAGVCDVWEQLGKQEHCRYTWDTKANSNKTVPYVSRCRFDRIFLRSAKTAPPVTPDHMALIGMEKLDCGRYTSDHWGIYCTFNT
The experiment in a line: Inhibition of zebra fish recombinant TDP2 using alpha32P-cordycepin-3'-labeled TY19 as substrate after 15 mins by PAGE method.

The target of assay [3] is T3, Tyrosyl-DNA phosphodiesterase 2 (Homo sapiens, UniProt O95551).
T3 sequence (O95551 whole entry): T1 sequence (whole entry)
Kind of assay: Inhibition of human recombinant TDP2 using alpha32P-cordycepin-3'-labeled TY19 as substrate after 15 mins by PAGE method.

The target of assay [4] is T4, Tyrosyl-DNA phosphodiesterase 2 (Mus musculus, UniProt Q9JJX7).
T4 sequence (Q9JJX7 whole entry): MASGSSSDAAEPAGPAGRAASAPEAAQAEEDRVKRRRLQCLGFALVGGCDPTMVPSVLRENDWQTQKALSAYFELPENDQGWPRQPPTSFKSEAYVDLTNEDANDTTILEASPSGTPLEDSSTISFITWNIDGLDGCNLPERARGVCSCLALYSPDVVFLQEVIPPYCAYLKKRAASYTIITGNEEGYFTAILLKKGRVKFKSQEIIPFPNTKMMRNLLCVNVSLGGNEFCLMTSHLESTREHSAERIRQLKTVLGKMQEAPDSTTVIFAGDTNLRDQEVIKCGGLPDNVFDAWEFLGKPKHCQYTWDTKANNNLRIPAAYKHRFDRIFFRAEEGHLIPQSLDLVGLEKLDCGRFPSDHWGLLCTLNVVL
The experiment in a line: Inhibition of mouse recombinant TDP2 using alpha32P-cordycepin-3'-labeled TY19 as substrate after 15 mins by PAGE method.

Assay [5] concerns the target T5, Tyrosyl-DNA phosphodiesterase 1 (Homo sapiens, UniProt Q9NUW8). Kind of assay: Inhibition of human recombinant TDP1 using 5'-[32P]-labeled N14Y as substrate after 15 mins by PAGE method.
Assay [6] has as its target T5, Tyrosyl-DNA phosphodiesterase 1. Kind of assay: Effect on human TDP1 up to 200 uM.
For assay [7], the target named is T3, Tyrosyl-DNA phosphodiesterase 2. Kind of assay: Inhibition of human TDP2.

Calls of active or inactive are those of the source. The rule behind the calls is not given here. Where only a bound is given, the exact number is not on record here.

T5 sequence (Q9NUW8 whole entry): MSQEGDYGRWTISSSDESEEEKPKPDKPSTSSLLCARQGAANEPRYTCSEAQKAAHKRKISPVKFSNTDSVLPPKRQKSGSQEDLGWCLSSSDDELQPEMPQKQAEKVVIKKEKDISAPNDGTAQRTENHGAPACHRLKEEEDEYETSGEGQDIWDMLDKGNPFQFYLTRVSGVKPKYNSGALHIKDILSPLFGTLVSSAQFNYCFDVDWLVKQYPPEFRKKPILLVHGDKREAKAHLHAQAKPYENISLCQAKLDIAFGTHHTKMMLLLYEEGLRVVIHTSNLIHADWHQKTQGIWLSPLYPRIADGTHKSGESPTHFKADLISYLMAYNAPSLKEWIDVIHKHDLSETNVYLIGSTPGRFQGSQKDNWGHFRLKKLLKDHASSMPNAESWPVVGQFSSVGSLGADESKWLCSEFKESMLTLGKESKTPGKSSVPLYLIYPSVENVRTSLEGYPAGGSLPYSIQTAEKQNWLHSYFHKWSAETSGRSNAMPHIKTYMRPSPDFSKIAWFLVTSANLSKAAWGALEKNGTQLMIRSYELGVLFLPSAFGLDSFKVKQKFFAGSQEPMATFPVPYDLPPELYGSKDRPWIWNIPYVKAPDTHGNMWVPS

A word on the IC50: it is the concentration needed to halve the response being measured. Turning to `O=C(NC(CSSCC(NC(=O)c1ccccc1)C(=O)O)C(=O)O)c1ccccc1` (stereo not given), the inhibition result in assay [1] was “Active”. In addition, the IC50 amounted to 15 µM in assay [2] and 4.1 µM in assay [3].
In the case of `N#CCCN(CCC#N)c1ccc(/C=C2\C(=O)N(c3ccc(S(=O)(=O)O)cc3)N=C2C(=O)O)cc1`, the IC50 is 15 µM in assay [4], 5.2 µM in assay [2], 3.5 µM in assay [3] and greater than 111 µM in assay [5]. The inhibition entry in assay [1] is “Active”.
Consider `O=C(Cc1ccccc1)NC(CSSCC(NC(=O)Cc1ccccc1)C(=O)O)C(=O)O` (stereo not given), for which the IC50 in assay [4] was greater than 111 µM; in assay [2], 20 µM; in assay [3], 9 µM; in assay [5] it was greater than 111 µM. For the same compound, in assay [1], the inhibition entry is “Active”.
Turning to `COc1ccc(CC2C(=O)N(c3ccc([N+](=O)[O-])cc3)N=C2C(=O)O)cc1Oc1ccc(F)cc1` (stereo not given), the result in assay [6] was inactive. In assay [7], this compound gave an IC50 of 12 µM.
